Laboratory results: ChEMBL document CHEMBL5625253, “Discovery of novel benzofuran-based derivatives as acetylcholinesterase inhibitors for the treatment of Alzheimer's disease: Design, synthesis, biological evaluation, molecular docking and 3D-QSAR investigation” (Eur J Med Chem, 2023)
The source made the active and inactive calls. The calls are words filed in the database; no cut-off is given here.

Assays:
[1] = Antioxidant activity assessed as DPPH radical scavenging activity at 0.05 ug/ml incubated for 1 hr under dark condition by absorbance based assay relative to control; assay type: functional; conditions: dose 0.05 µg/ml
Acetylcholinesterase = Acetylcholinesterase (Homo sapiens, UniProt P22303); assay: Inhibition of AChE (unknown origin) using […] as substrate incubated for 15 to 20 mins by DTNB reagent based Ellman's method
[2] = Antioxidant activity assessed as DPPH radical scavenging activity at 0.01 ug/ml incubated for 1 hr under dark condition by absorbance based assay relative to control; assay type: functional; conditions: dose 0.01 µg/ml
[3] = Acute toxicity in Wistar rat assessed as mortality at 50 mg/kg,po observed after 24 hrs; assay type: organism-based; conditions: in vivo
[4] = Toxicity in Wistar rat assessed as RBC level in blood at 10 mg/kg,po; assay type: organism-based, Erythrocyte; conditions: in vivo
[5] = Acute toxicity in Wistar rat assessed as loose bowels at 10 mg/kg,po administrated for 1 month; assay type: organism-based; conditions: in vivo, 730 h, time 1 months
[6] = Toxicity in Wistar rat assessed as glucose level in liver at 10 mg/kg,po (reference value: 105 +/- 8.44 mg/dl); assay type: organism-based; conditions: in vivo
[7] = Toxicity in Wistar rat assessed as mean platelet volume in blood at 10 mg/kg,po (reference value: 7.3 +/- 0.12 fL); assay type: organism-based; conditions: in vivo
Rattus norvegicus [8] = assay: Antialzheimer activity against AlCl3-induced Alzheimer's disease Wistar albino rat model assessed as improvement in GSH level in brain at 10 mg/kg,po for 6 weeks relative to control; assay type: functional
Rattus norvegicus [9] = assay: Antialzheimer activity against AlCl3-induced Alzheimer's disease Wistar albino rat model assessed as GSH level in brain at 10 mg/kg,po for 6 weeks; assay type: functional
[10] = Toxicity in Wistar rat assessed as AST level in liver at 10 mg/kg,po (reference value: 67 +/- 5.1 U/L); assay type: organism-based; conditions: in vivo
Rattus norvegicus [11] = assay: Antialzheimer activity against AlCl3-induced Alzheimer's disease Wistar albino rat model assessed as MDA level in brain at 10 mg/kg,po for 6 weeks; assay type: functional
[12] = Toxicity in Wistar rat assessed as haematocrit level in blood at 10 mg/kg,po (reference value: 38.16 +/- 2.44 %); assay type: organism-based; conditions: in vivo
[13] = Toxicity in Wistar rat assessed as bilirubin level in liver at 10 mg/kg,po (reference value: 0.6 +/- 0.08 mg/dl); assay type: organism-based; conditions: in vivo
[14] = Acute toxicity in Wistar rat assessed as mortality at 50 mg/kg,po observed after 1 month; assay type: organism-based; conditions: in vivo, 730 h, time 1 months
[15] = Toxicity in Wistar rat assessed as Kupffer cell proliferation in liver at 10 mg/kg,po by hematoxylin and eosin staining based microscopic analysis; assay type: organism-based; conditions: in vivo
Rattus norvegicus [16] = assay: Antialzheimer activity against AlCl3-induced Alzheimer's disease Wistar albino rat model assessed as time taken to reach the food at 10 mg/kg,po for 6 weeks by T-maze test; assay type: functional
[17] = Toxicity in Wistar rat assessed as red blood cell distribution width in blood at 10 mg/kg,po (reference value: 17.2 +/- 0.22 %); assay type: organism-based; conditions: in vivo
[18] = Toxicity in Wistar rat assessed as mean corpuscular volume in blood at 10 mg/kg,po (reference value: 59 +/- 5 fL); assay type: organism-based; conditions: in vivo
[19] = Toxicity in Wistar rat assessed as creatinine level in liver at 10 mg/kg,po (reference value: 0.68 +/- 0.03 mg/dl); assay type: organism-based; conditions: in vivo
Rattus norvegicus [20] = assay: Antialzheimer activity against AlCl3-induced Alzheimer's disease Wistar albino rat model assessed as change in GSH level in brain at 10 mg/kg,po for 6 weeks relative to control; assay type: functional
[21] = Toxicity in Wistar rat assessed as histopathological change in brain at 10 mg/kg,po by hematoxylin and eosin staining based microscopic analysis; assay type: organism-based; conditions: in vivo
[22] = Toxicity in Wistar rat assessed as ALP level in liver at 10 mg/kg,po (reference value: 140 +/- 6 U/L); assay type: organism-based; conditions: in vivo
[23] = Toxicity in Wistar rat assessed as histopathological change in kidney at 10 mg/kg,po by hematoxylin and eosin staining based microscopic analysis; assay type: organism-based; conditions: in vivo
[24] = Toxicity in Wistar rat assessed as hemoglobin level in blood at 10 mg/kg,po (reference value: 14.5 +/- 1 g/dl); assay type: organism-based; conditions: in vivo
[25] = Toxicity in Wistar rat assessed as urea level in liver at 10 mg/kg,po (reference value: 33.6 +/- 2.65 mg/dl); assay type: organism-based; conditions: in vivo
[26] = Toxicity in Wistar rat assessed as mean corpuscular hemoglobin concentration in blood at 10 mg/kg,po (reference value: 33.8 +/- 2.1 g/dl); assay type: organism-based; conditions: in vivo
Rattus norvegicus [27] = assay: Antialzheimer activity against AlCl3-induced Alzheimer's disease Wistar albino rat model assessed as gliosis at 10 mg/kg,po for 6 weeks by hematoxylin and eosin staining based microscopic analysis; assay type: functional
Rattus norvegicus [28] = assay: Antialzheimer activity against AlCl3-induced Alzheimer's disease Wistar albino rat model assessed as degeneration of pyramidal neurons in hippocampus at 10 mg/kg,po for 6 weeks by hematoxylin and eosin staining based microscopic analysis; assay type: functional
[29] = Toxicity in Wistar rat assessed as albumin level in liver at 10 mg/kg,po (reference value: 3.28 +/- 0.43 mg/dl); assay type: organism-based; conditions: in vivo
[30] = Toxicity in Wistar rat assessed as ALT level in liver at 10 mg/kg,po (reference value: 27 +/- 2 U/L); assay type: organism-based; conditions: in vivo
[31] = Toxicity in Wistar rat assessed as […] cell volume in blood at 10 mg/kg,po (reference value: 43 +/- 3.1 %); assay type: organism-based; conditions: in vivo
Rattus norvegicus [32] = assay: Antialzheimer activity against AlCl3-induced Alzheimer's disease Wistar albino rat model assessed as decrease in cellular density in hippocampal region of brain at 10 mg/kg,po for 6 weeks by hematoxylin and eosin staining based microscopic analysis; assay type: functional, organism-based
[33] = Toxicity in Wistar rat assessed as histopathological change in heart at 10 mg/kg,po by hematoxylin and eosin staining based microscopic analysis; assay type: organism-based; conditions: in vivo
[34] = Toxicity in Wistar rat assessed as mean corpuscular hemoglobin in blood at 10 mg/kg,po (reference value: 19 +/- 1.77 pg); assay type: organism-based; conditions: in vivo
[35] = Acute toxicity in Wistar rat assessed as mortality at 100 mg/kg,po observed after 1 month; assay type: organism-based; conditions: in vivo, 730 h, time 1 months
Rattus norvegicus [36] = assay: Antialzheimer activity against AlCl3-induced Alzheimer's disease Wistar albino rat model assessed as change in MDA level in brain at 10 mg/kg,po for 6 weeks relative to control; assay type: functional
Rattus norvegicus [37] = assay: Antialzheimer activity against AlCl3-induced Alzheimer's disease Wistar albino rat model assessed as improvement in cognitive ability at 10 mg/kg,po for 6 weeks by T-maze test; assay type: functional
[38] = Acute toxicity in Wistar rat assessed as mortality at 100 mg/kg,po observed after 24 hrs; assay type: organism-based; conditions: in vivo
[39] = Acute toxicity in Wistar rat assessed as mortality at 10 mg/kg,po administrated for 1 month; assay type: organism-based; conditions: in vivo, 730 h, time 1 months
Rattus norvegicus [40] = assay: Antialzheimer activity against AlCl3-induced Alzheimer's disease Wistar albino rat model assessed as improvement in MDA level in brain at 10 mg/kg,po for 6 weeks relative to control; assay type: functional

Acetylcholinesterase, sequence (P22303 whole entry): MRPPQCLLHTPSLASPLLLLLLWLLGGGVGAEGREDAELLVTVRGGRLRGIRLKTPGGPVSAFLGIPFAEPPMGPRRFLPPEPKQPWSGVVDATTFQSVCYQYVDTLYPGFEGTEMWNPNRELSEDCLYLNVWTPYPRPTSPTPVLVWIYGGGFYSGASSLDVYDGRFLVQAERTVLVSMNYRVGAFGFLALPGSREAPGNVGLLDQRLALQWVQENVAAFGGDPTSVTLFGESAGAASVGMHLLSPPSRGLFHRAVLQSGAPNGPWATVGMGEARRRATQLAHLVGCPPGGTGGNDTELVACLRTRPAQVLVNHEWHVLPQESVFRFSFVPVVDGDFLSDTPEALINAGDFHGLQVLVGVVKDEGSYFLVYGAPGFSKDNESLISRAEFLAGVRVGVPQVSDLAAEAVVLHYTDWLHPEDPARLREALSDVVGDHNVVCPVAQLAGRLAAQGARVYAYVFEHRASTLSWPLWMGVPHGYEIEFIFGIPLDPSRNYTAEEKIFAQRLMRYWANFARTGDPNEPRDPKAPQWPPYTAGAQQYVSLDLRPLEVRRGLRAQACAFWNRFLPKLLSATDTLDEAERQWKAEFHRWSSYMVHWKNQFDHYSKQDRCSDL

## O=C(/C=C/Nc1ccc(S(=O)(=O)Nc2ncccn2)cc1)c1cc2ccccc2o1
[1]
  Activity: 37.5%
Acetylcholinesterase
  IC50: 357 nM
[2]
  Activity: 5%

## O=C(O)c1cccc(N/C=C/C(=O)c2cc3ccccc3o2)c1
[1]
  Activity: 65%
Acetylcholinesterase
  IC50: 3770 nM
[2]
  Activity: 22.5%

## NS(=O)(=O)c1ccc(N/C=C/C(=O)c2cc3ccccc3o2)cc1
[1]
  Activity: 13%
Acetylcholinesterase
  IC50: 882 nM
[2]
  Activity: 18.4%

## CC(=O)c1cccc(N/C=C/C(=O)c2cc3ccccc3o2)c1
[3]
  Activity: Non-Toxic
[4]
  Activity: 6.29 10^6/µL
[5]
  Activity: Non-Toxic
[6]
  Activity: 115 mg/dL
[7]
  Activity: 6.9 fL
[1]
  Activity: 67.6%
Rattus norvegicus [8]
  Activity: 26.98%
Rattus norvegicus [9]
  Activity: 16.32 mg
[10]
  Activity: 68 U/L
Rattus norvegicus [11]
  Activity: 57.14 nmol
[12]
  Activity: 39.4%
[13]
  Activity: 0.67 mg/dL
[14]
  Activity: Non-Toxic
[15]
  Activity: Non-Toxic
Acetylcholinesterase
  IC50: 190 nM
Rattus norvegicus [16]
  Time: 27 s
[17]
  Activity: 16.6%
[18]
  Activity: 56 fL
[19]
  Activity: 0.72 mg/dL
Rattus norvegicus [20]
  Activity: 24.09%
[21]
  Activity: Non-Toxic
[22]
  Activity: 136 U/L
[23]
  Activity: Non-Toxic
[24]
  Activity: 14.8 g/dL
[25]
  Activity: 32 mg/dL
[26]
  Activity: 31 g/dL
Rattus norvegicus [27]
  Activity: <10%
Rattus norvegicus [28]
  Activity: <10%
[29]
  Activity: 3.3 mg/dL
[30]
  Activity: 29 U/L
[31]
  Activity: 42.16%
Rattus norvegicus [32]
  Activity: Active
[33]
  Activity: Non-Toxic
[34]
  Activity: 18.6 pg
[35]
  Activity: Non-Toxic
Rattus norvegicus [36]
  Activity: 103.35%
Rattus norvegicus [37]
  Activity: 107.04%
[2]
  Activity: 63.1%
[38]
  mortality at 24 h: 25%
[39]
  Activity: Non-Toxic
Rattus norvegicus [40]
  Activity: 242.95%

## O=C(/C=C/Nc1cccc(Br)c1)c1cc2ccccc2o1
[1]
  Activity: 17.9%
Acetylcholinesterase
  IC50: 313 nM
[2]
  Activity: 9.29%

## CCOC(=O)c1ccc(N/C=C/C(=O)c2cc3ccccc3o2)cc1
[1]
  Activity: 28.6%
Acetylcholinesterase
  IC50: 2130 nM
[2]
  Activity: 21.4%

## O=C(/C=C/Nc1ccc(Cl)cc1)c1cc2ccccc2o1
[1]
  Activity: 65.3%
Acetylcholinesterase
  IC50: 2140 nM
[2]
  Activity: 28.2%

## Cc1cccc(N/C=C/C(=O)c2cc3ccccc3o2)c1
[1]
  Activity: 14.3%
Acetylcholinesterase
  IC50: 617 nM
[2]
  Activity: 12.1%

## CC(=O)c1ccc(N/C=C/C(=O)c2cc3ccccc3o2)cc1
[1]
  Activity: 27%
Acetylcholinesterase
  IC50: 5910 nM
[2]
  Activity: 10%

## Cc1cc(NS(=O)(=O)c2ccc(N/C=C/C(=O)c3cc4ccccc4o3)cc2)no1
[1]
  Activity: 65.2%
Acetylcholinesterase
  IC50: 283 nM
[2]
  Activity: 71.7%

## O=C(/C=C/Nc1ccc(S(=O)(=O)Nc2ccccn2)cc1)c1cc2ccccc2o1
[1]
  Activity: 76.1%
Acetylcholinesterase
  IC50: 1070 nM
[2]
  Activity: 2.2%

## O=C1O[C@H]([C@@H](O)CO)C(O)=C1O
[1]
  Activity: 89%
[2]
  Activity: 81%

## COc1cc2c(cc1OC)C(=O)C(CC1CCN(Cc3ccccc3)CC1)C2 (configuration not stated) [DONEPEZIL]
[1]
  Activity: 30.2%
Rattus norvegicus [8]
  Activity: 33.02%
Rattus norvegicus [9]
  Activity: 17.62 mg
Rattus norvegicus [11]
  Activity: 47.17 nmol
Rattus norvegicus [16]
  Time: 26 s
Rattus norvegicus [20]
  Activity: 18.05%
Rattus norvegicus [27]
  Activity: <10%
Rattus norvegicus [28]
  Activity: <10%
Rattus norvegicus [36]
  Activity: 67.86%
Rattus norvegicus [37]
  Activity: 112.14%
[2]
  Activity: 20.4%
Rattus norvegicus [40]
  Activity: 278.43%

## O=C(/C=C/Nc1ccccc1C(=O)O)c1cc2ccccc2o1
[1]
  Activity: 65%
Acetylcholinesterase
  IC50: 2070 nM
[2]
  Activity: 23.5%

## Cc1ccc(N/C=C/C(=O)c2cc3ccccc3o2)cc1
[1]
  Activity: 40%
Acetylcholinesterase
  IC50: 397 nM
[2]
  Activity: 21.3%

## O=C(/C=C/Nc1ccccc1O)c1cc2ccccc2o1
[1]
  Activity: 90%
Acetylcholinesterase
  IC50: 308 nM
[2]
  Activity: 65.5%

## O=C(/C=C/Nc1cccc([N+](=O)[O-])c1)c1cc2ccccc2o1
[1]
  Activity: 82.6%
Acetylcholinesterase
  IC50: 736 nM
[2]
  Activity: 76.1%

## O=C(/C=C/Nc1ccc(F)cc1)c1cc2ccccc2o1
[1]
  Activity: 76.1%
Acetylcholinesterase
  IC50: 487 nM
[2]
  Activity: 73.9%

## O=C(/C=C/Nc1ccc(Br)cc1)c1cc2ccccc2o1
[1]
  Activity: 27%
Acetylcholinesterase
  IC50: 1100 nM
[2]
  Activity: 22.2%

## CN(C)/C=C/C(=O)c1cc2ccccc2o1
[1]
  Activity: 56.4%
Acetylcholinesterase
  IC50: 2690 nM
[2]
  Activity: 11.4%

## O=C(O)c1ccc(N/C=C/C(=O)c2cc3ccccc3o2)cc1
[1]
  Activity: 35%
Acetylcholinesterase
  IC50: 794 nM
[2]
  Activity: 5.71%

## N=C(N)NS(=O)(=O)c1ccc(N/C=C/C(=O)c2cc3ccccc3o2)cc1
[1]
  Activity: 35%
Acetylcholinesterase
  IC50: 908 nM
[2]
  Activity: 25%
